Laboratory results from US11041000B2, “Peptide inhibitors of interleukin-23 receptor and their use to treat inflammatory diseases” (priority 2019, dated 2021).
Bridge positions count the residues as written; N and C are the ends. Square brackets hold non-standard residues; d marks the D form. Peptide text beside a SMILES is read from it. Trp(7-Me) = Cc1cccc2c(C[C@H](N)C(=O)O)c[nH]c12; 2Nal = N[C@@H](Cc1ccc2ccccc2c1)C(=O)O; AEF = NCCOc1ccc(C[C@H](N)C(=O)O)cc1; Cit = NC(=O)NCCC[C@H](N)C(=O)O; Pen = CC(C)(S)[C@H](N)C(=O)O; αMeK = C[C@](N)(CCCCN)C(=O)O; Aib = CC(C)(N)C(=O)O; βAla = NCCC(=O)O

Columns and labels:
[1] = tested on: Natural killer (NK) cells; test: NK cell based assay (IL-23-induced IFNγ); conditions: primary human NK cells, IL-23 plus IL-18 10 ng/mL, IFNγ in supernatant after 20 to 24 hours
Experimental: Natural killer (NK) cells, purified from human peripheral blood of healthy donors by negative selection (Miltenyi Biotech, Cat #130-092-657), were cultured in complete media (RPMI 1640 containing 10% FBS, L-glutamine and penicillin-streptomycin) in the presence of IL-2 (RnD, Cat #202-IL-010/CF) at 25 ng/mL. After 7 days, cells were centrifuged, and resuspended in complete media at 1E6 cells/mL. […] After 20 to 24 hours, IFNγ in the supernatant was quantified using Quantikine ELISA (RnD, Cat #DIF50).

[2] = Stability in simulated intestinal fluid (SIF); assay type: in vitro ADME; conditions: simulated intestinal fluid with pancreatin, pH 6.8, 37° C., matrix is 100 fold dilution of standard SIF concentration; for half-life at 20 μM: read-out: SIF t½ (converted)
[3] = Stability in human fecal homogenate; assay type: in vitro ADME; conditions: 20% fecal homogenate (supernatant), pH 6.8, 20% human fecal homogenate, anaerobic, 37° C., read-out: t½: Human Feces anaerobic (converted)
Experimental: (§1) Centrifuged the homogenate at 2800×g for 15 min. The supernatant is taken out and used for incubations. […] The final test compound concentration was 20 μM.

[4] = Stability in cynomolgus monkey fecal homogenate; assay type: in vitro ADME; conditions: 20% fecal homogenate (supernatant), pH 6.8, 20% cynomolgus monkey fecal homogenate, anaerobic, 37° C., read-out: t½: Monkey Feces anaerobic (converted)
Experimental: as §1

Stability in rat plasma = assay type: in vitro ADME; conditions: both sexes, SD rat plasma, EDTA, 37° C., read-out: t½: Rat Plasma EDTA (converted)
[5] = biological target: IL-23R-expressing DB cells (Homo sapiens, UniProt Q5VWK5); test: DB cells IL23R pSTAT3 cell assay (pStat3HTRF); assay type: cell-based; conditions: DB cells stimulated with IL-23 0.5 nM, 30 minutes, phospho-STAT3 in cell lysates; read-out: pStat3 HTRF
Excerpt: Human ELISA indicates the IL23-IL23R competitive binding assay described below, Rat ELISA indicates the rat IL-23R competitive binding ELISA assay described below, and pStat3HTRF indicates the DB cells IL-23R pSTAT3 cell assay described below. The peptides depicted in Table E1 are cyclized via a disulfide bridge formed between two Pen residues in these peptides. The peptides depicted in Table E2 are cyclized via a thioether bond between the indicated amino acid residues. Table E2 provides an illustrative structure depicting thioether cyclization, which is indicated in the table by the term “cyclo,” with the cyclic region bracketed immediately following the term “cyclo.” For certain peptides, the residue Abu is present where indicated, whereas in other embodiments, e.g., those related to the non-cyclized form, the Abu may be referred to as a hSer(Cl) or homoSer residue. The petpides depicted in Table E3 are cyclized via a disulfide bridge formed between two Pen residues or a thioether bond between Abu and Cys.
IL-23 plays a central role in supporting and maintaining Th17 differentiation in vivo. This process is thought to be mediated primarily through the Signal Transducer and Activator of Transcription 3 (STAT3), with phosphorylation of STAT3 (to yield pSTAT3) leading to upregulation of RORC and pro-inflammatory IL-17. This cell assay examines the levels of pSTAT3 in IL-23R-expressing DB cells when stimulated with IL-23 in the presence of test compounds. Serial dilutions of test peptides and IL-23 (Humanzyme #HZ-1261) at a final concentration of 0.5 nM, were added to each well in a 96 well tissue culture plate (Corning #CLS3894). DB cells (ATCC #CRL-2289), cultured in RPMI-1640 medium (Thermo Scientific #11875093) supplemented with 10% FBS, were added at 5×10E5 cells/well and incubated for 30 minutes at 37° C. in a 5% CO2 humidified incubator. Changes in phospho-STAT3 levels in the cell lysates were detected using the Cisbio HTRF pSTAT3 (Tyr705) Cellular Assay Kit (Cisbio #62AT3PEH), according to manufacturer's Two Plate Assay protocol.

[6] = Stability in simulated gastric fluid (SGF); assay type: in vitro ADME; conditions: simulated gastric fluid with porcine pepsin, pH 2, 37° C., 20 μM peptide
Experimental: SGF was prepared by adding 20 mg NaCl, 32 mg porcine pepsin (MP Biochemicals, catalog 02102599), and 70 μl HCl to 10 ml water (final pH=2). Aliquots of SGF (0.5 ml each) were pre-warmed at 37° C. To start the reaction, 1 μl of peptide stock solution (10 mM in DMSO) was added to 0.5 ml SGF and thoroughly mixed such that the final peptide concentration was 20 μM. The reactions were incubated at 37° C. with gentle shaking. At each time point (0, 15, 30, 60 min) 50 μl aliquots were removed and added to 200 ul acetonitrile containing 0.1% formic acid to quench the reaction. Samples are stored at 4° C. until the end of the experiment and centrifuged at 10,000 rpm for 5 minutes. Aliquots of the supernatant were removed, diluted 1:1 into distilled water containing internal standard, and analyzed by LCMS/MS. Percent remaining at each timepoint was calculated based on the peak area response ratio of test to compound to internal standard. Time 0 was set to 100%, and all later timepoints were calculated relative to time 0. Half-lives were calculated by fitting to a first-order exponential decay equation using GraphPad.

Chain of IL-23R-expressing DB cells (Q5VWK5 24-629 limits assumed): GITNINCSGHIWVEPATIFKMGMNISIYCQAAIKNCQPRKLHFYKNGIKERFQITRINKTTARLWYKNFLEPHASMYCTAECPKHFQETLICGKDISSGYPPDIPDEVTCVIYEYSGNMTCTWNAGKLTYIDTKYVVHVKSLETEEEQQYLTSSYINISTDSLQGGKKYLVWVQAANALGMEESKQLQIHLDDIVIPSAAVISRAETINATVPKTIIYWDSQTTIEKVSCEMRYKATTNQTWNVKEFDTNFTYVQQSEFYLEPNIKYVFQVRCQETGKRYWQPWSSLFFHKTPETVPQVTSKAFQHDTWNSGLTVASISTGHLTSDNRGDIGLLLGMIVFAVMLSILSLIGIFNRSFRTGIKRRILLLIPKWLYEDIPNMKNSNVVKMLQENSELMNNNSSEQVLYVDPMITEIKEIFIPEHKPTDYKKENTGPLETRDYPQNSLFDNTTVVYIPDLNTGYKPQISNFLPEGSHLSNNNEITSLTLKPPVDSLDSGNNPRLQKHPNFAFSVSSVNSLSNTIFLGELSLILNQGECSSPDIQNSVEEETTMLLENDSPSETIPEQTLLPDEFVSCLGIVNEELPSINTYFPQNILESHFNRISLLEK

`CC(=O)NCCCC[C@@H]1NC(=O)[C@H](Cc2c[nH]c3c(C)cccc23)NC(=O)[C@H]([C@@H](C)O)NC(=O)[C@H](CC(N)=O)NC(=O)[C@@H](NC(C)=O)C(C)(C)SSC(C)(C)[C@@H](C(=O)N[C@@H](Cc2ccc(OCCN)cc2)C(=O)N[C@@H](Cc2ccc3ccccc3c2)C(=O)N[C@@](C)(CCCCN)C(=O)N[C@@H](CCCCNC(=O)C2CCCCC2)C(=O)N[C@@H](CC(N)=O)C(=O)N[C@H](CC(C)C)C(N)=O)NC1=O` [compound 357] showed an IC50 [1] of 3.8 nM, a half-life at 20 μM [2] of 840 min and a half-life at 20 μM [3] greater than 1440 min. The half-life at 20 μM [4] was greater than 1440 min and the half-life at 20 μM (Stability in rat plasma) was greater than 1440 min.

In the case of `CCCCCCCC(=O)NCCCC[C@H](NC(=O)[C@](C)(CCCCN)NC(=O)[C@H](Cc1ccc2ccccc2c1)NC(=O)[C@H](Cc1ccc(OCCN)cc1)NC(=O)[C@H]1NC(=O)[C@H](CCCCNC(C)=O)NC(=O)[C@H](Cc2c[nH]c3c(C)cccc23)NC(=O)[C@H]([C@@H](C)O)NC(=O)[C@H](CC(N)=O)NC(=O)[C@@H](NC(C)=O)C(C)(C)SSC1(C)C)C(=O)N[C@@H](CC(N)=O)C(=O)N[C@H](CC(C)C)C(N)=O` [compound 358], the IC50 [5] is reported as 3.03 nM, the “SIF t½” value ([2]; 20 μM) is reported as 24 h and the half-life at 20 μM [3] is reported as greater than 1440 min. It also gave a half-life at 20 μM [4] greater than 1440 min and a half-life at 20 μM (Stability in rat plasma) greater than 1440 min.

Work on `CC(=O)NCCCC[C@@H]1NC(=O)[C@H](Cc2c[nH]c3c(C)cccc23)NC(=O)[C@H]([C@@H](C)O)NC(=O)[C@H](CC(N)=O)NC(=O)[C@@H](NC(C)=O)C(C)(C)SSC(C)(C)[C@@H](C(=O)N[C@@H](Cc2ccc(OCCN)cc2)C(=O)N[C@@H](Cc2ccc3ccccc3c2)C(=O)N[C@@](C)(CCCCN)C(=O)N[C@@H](CCCCNC(C)=O)C(=O)N[C@@H](CC(N)=O)C(=O)N[C@H](Cc2ccccc2)C(N)=O)NC1=O` [compound 258] yielded an IC50 [5] of 0.92 nM, a half-life at 20 μM [2] of 840 min and a half-life at 20 μM [3] greater than 1440 min. The half-life at 20 μM ([4]; cynomolgus monkey) was greater than 1440 min and the half-life at 20 μM (Stability in rat plasma) was greater than 1440 min.

With `CC(=O)NCCCC[C@H](NC(=O)[C@](C)(CCCCN)NC(=O)[C@H](Cc1ccc2ccccc2c1)NC(=O)[C@H](Cc1ccc(OCCN)cc1)NC(=O)[C@H]1NC(=O)[C@H](CCCNC(N)=O)NC(=O)[C@H](Cc2c[nH]c3c(C)cccc23)NC(=O)[C@H]([C@@H](C)O)NC(=O)[C@H](CC(N)=O)NC(=O)[C@@H](NC(C)=O)C(C)(C)SSC1(C)C)C(=O)N[C@@H](CC(N)=O)C(=O)NC(C)(C)C(=O)N[C@H](CCCNC(=N)N)C(N)=O` [compound 345] (Ac-[Pen]NT[Trp(7-Me)][Cit][Pen][AEF][2Nal][αMeK]K(Ac)N[Aib][dR]-NH2; disulfide 1-6) the IC50 [5] was 0.639 nM, the half-life at 20 μM [2] was 720 min and the half-life at 20 μM [3] was greater than 1440 min. It also gave a half-life at 20 μM [4] greater than 1440 min and a half-life at 20 μM (Stability in rat plasma) greater than 1440 min.

With `CC(=O)NCCCC[C@H](NC(=O)[C@](C)(CCCCN)NC(=O)[C@H](Cc1ccc2ccccc2c1)NC(=O)[C@H](Cc1ccc(OCCN)cc1)NC(=O)[C@H]1NC(=O)[C@H](CCCNC(N)=O)NC(=O)[C@H](Cc2c[nH]c3c(C)cccc23)NC(=O)[C@H]([C@@H](C)O)NC(=O)[C@H](CC(N)=O)NC(=O)[C@@H](NC(C)=O)C(C)(C)SSC1(C)C)C(=O)N[C@@H](CC(N)=O)C(=O)NC(C)(C)C(N)=O` [compound 264] (Ac-[Pen]NT[Trp(7-Me)][Cit][Pen][AEF][2Nal][αMeK]K(Ac)N[Aib]-NH2; disulfide 1-6) the “SGF t½” value [6] was 24 h.

Work on `CC(=O)N[C@@H]1C(=O)N[C@@H](CC(N)=O)C(=O)N[C@@H]([C@@H](C)O)C(=O)N[C@@H](Cc2c[nH]c3c(C)cccc23)C(=O)N[C@@H](CCCNC(N)=O)C(=O)N[C@H](C(=O)N[C@@H](Cc2ccc(OCCN)cc2)C(=O)N[C@@H](Cc2ccc3ccccc3c2)C(=O)N[C@@](C)(CCCCN)C(=O)N[C@@H](CCCNC(N)=O)C(=O)NCCC(=O)NCCC(N)=O)C(C)(C)SSC1(C)C` [compound 281] (Ac-[Pen]NT[Trp(7-Me)][Cit][Pen][AEF][2Nal][αMeK][Cit][βAla][βAla]-NH2; disulfide 1-6) yielded an IC50 [5] of 17.7 nM, a half-life at 20 μM [2] of 840 min and a half-life at 20 μM [3] greater than 1440 min. For the same compound, the half-life at 20 μM ([4]; cynomolgus monkey) was greater than 1440 min and the half-life at 20 μM (Stability in rat plasma) was greater than 1440 min.
